This note sets out measurements from patent publication US9512118B2, “Crystal of fused heterocyclic compound” (TAKEDA PHARMACEUTICAL COMPANY LIMITED, priority 2011, dated 2016).

For data set [1] the following is noted: room temperature.
Excerpt: After stirring for one week, and after stirring for 2 weeks, the crystals of 1-ethyl-7-methyl-3-{4-[(3-methyl-3H-imidazo[4,5-b]pyridin-2-yl)oxy]phenyl}-1,3-dihydro-2H-imidazo[4,5-b]pyridin-2-one formed were collected by filtration, and the crystal form of the crystalline products was confirmed.
The nature of data set [2]: Study of crystallization from various solvents (solubility at 55° C. and crystal form obtained). The data set is classed as physicochemical. The following applies: for solubility: 55 °C, organic solvent or mixture, thermodynamic from solid; for crystal form: dissolved at 55° C., cooled to 0-5° C., stirred 8 hr. On the procedure: This solution was filtered through a filter with 0.22 μm pore size, and cooled to 0-5° C. with stirring. The mixture was stirred for 8 hr under cooling at 0-5° C.

Setting [3] is: 80° C., 1 week, sealed glass bottle.
Setting [4] is: 80° C., 2 weeks, sealed glass bottle.

Values after ≈ are worked out from the molar mass of the structure shown. Read-outs that look alike come from different tables or passages of the source. Bounds are passed on as bounds.

As usually defined, the solubility is how much of the substance goes into solution per volume.

On to `CCn1c(=O)n(-c2ccc(Oc3nc4cccnc4n3C)cc2)c2nccc(C)c21` [Form G, 1-ethyl-7-methyl-3-{4-[(3-methyl-3H-imidazo[4,5-b]pyridin-2-yl)oxy]phenyl}-1,3-dihydro-2H-imidazo[4,5-b]pyridin-2-one], for which the appearance result runs as follows: under setting [3], “no change”; under setting [4], “no change”; (prestorage) “white crystalline”. Besides, the “area percentage (%) of HPLC peak area of main form” value is, setting by setting: under setting [3], 99.7%; under setting [4], 99.6%; (prestorage) 99.7%. Also, the crystal form entry is listed as “Form G” under setting [3], “Form G” under setting [4] and “Form G” (prestorage).

Turning to `CCn1c(=O)n(-c2ccc(Oc3nc4cccnc4n3C)cc2)c2nccc(C)c21` [Form A, 1-ethyl-7-methyl-3-{4-[(3-methyl-3H-imidazo[4,5-b]pyridin-2-yl)oxy]phenyl}-1,3-dihydro-2H-imidazo[4,5-b]pyridin-2-one], the “crystal form 1 week later” value is recorded as “Form A” in data set [1] (suspended in 1-butanol); “Form G” in data set [1] (suspended in acetone); “Form A + Form G” in data set [1] (suspended in ethyl acetate); “Form A” in data set [1] (suspended in isopropyl alcohol); “Form G” in data set [1] (suspended in methanol); “Form G” in data set [1] (suspended in methylethylketone). In addition, the “crystal form 1 week later” value in data set [1] (suspended in tetrahydrofuran) and in data set [1] (suspended in toluene) was “Form G” in each case. In addition, the “crystal form 2 weeks later” value was “Form A” in data set [1] (suspended in 1-butanol); “Form G” in data set [1] (suspended in acetone); “Form G” in data set [1] (suspended in ethyl acetate); “Form A” in data set [1] (suspended in isopropyl alcohol); “Form G” in data set [1] (suspended in methanol); “Form G” in data set [1] (suspended in methylethylketone). Also, the “crystal form 2 weeks later” value in data set [1] (suspended in tetrahydrofuran) and in data set [1] (suspended in toluene) was “Form G” each time. The solubility is less than 2700 µg/mL in data set [2] (solvent 2-propanol); 6500 µg/mL (≈ 16.2 mM) in data set [2] (solvent acetone); 8100 µg/mL (≈ 20.2 mM) in data set [2] (solvent acetonitrile); greater than 200000 µg/mL in data set [2] (solvent chloroform); 2600 µg/mL (≈ 6.49 mM) in data set [2] (solvent ethanol); 3400 µg/mL (≈ 8.49 mM) in data set [2] (solvent ethyl acetate). Further, the solubility was 5600 µg/mL (≈ 14 mM) in data set [2] (solvent methanol); 6800 µg/mL (≈ 17 mM) in data set [2] (solvent methylethylketone); 26000 µg/mL (≈ 64.9 mM) in data set [2] (solvent tetrahydrofuran); 5200 µg/mL (≈ 13 mM) in data set [2] (solvent toluene); greater than 200000 µg/mL in data set [2] (solvent trifluoroethanol). For the same molecule, the crystal form result in data set [2] (crystallized from 2-propanol) is given as “Form A”; in data set [2] (crystallized from acetone), “Form A”; in data set [2] (crystallized from acetonitrile), “Form B”; in data set [2] (crystallized from chloroform), “Form A”; in data set [2] (crystallized from ethanol), “Form A”; in data set [2] (crystallized from ethyl acetate), “Form A”. Besides, the crystal form entry in data set [2] (crystallized from methanol) is “Form A”; in data set [2] (crystallized from methylethylketone) it was “Form A”; in data set [2] (crystallized from tetrahydrofuran), “Form A”; in data set [2] (crystallized from toluene), “Form G”; in data set [2] (crystallized from trifluoroethanol), “Form D”.
